One data set concerns the target T1, cyclin E/CDK2 enzyme (Homo sapiens, UniProt P24941).
T1 construct: made in house; host or cells: Sf9 insect cells, recombinant baculovirus
The data set can be described thus: CDK2 ELISA kinase assay (phospho-Rb ser 795 detection). The format is biochemical. The following applies: In Vitro Enzyme Assays, read-out: CDK2 IC50. Put shortly: (§1)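 Inhibition was derived from A450 relative to control wells lacking compound, following an anti-phospho-Rb Ser795 sandwich of HRP detection. The reactions combined coated GST-Rb fragment, 200 μM ATP and baculovirus-expressed cyclin/CDK enzymes, incubated for 1 h at 30° C.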
(In general: ELISA stands for enzyme-linked immunosorbent assay.)

For another data set, the system named is LoVo. The data set can be described thus: Cytotoxicity assay (SRB), LoVo. The format is cell-based. To be noted: Homo sapiens, LoVo, 72 h, LoVo cells, SRB, three days; read-out: In Vitro Cellular Activity IC50 LOVO. Put shortly: (§2)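 Plate cells, let them attach overnight, add compound dilutions in RPMI 1640/5% FBS, and incubate 3 days (BT474 6 days). Then fix with TCA, stain with SRB, dissolve the dye in Tris and read at 540 nm.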

A further data set addresses T2, cyclin D1/cdk 4 enzyme (Homo sapiens, UniProt P11802).
T2 construct: made in house; host or cells: Sf9 insect cells, recombinant baculovirus
The data set can be described thus: CDK4 ELISA kinase assay (phospho-Rb ser 795 detection). The data set is classed as biochemical. To be noted: In Vitro Enzyme Assays, 200 μM ATP, read-out: CDK4 IC50. Put shortly:
as §1

The subject of a further data set is HCT-116. As to the kind of experiment: Cytotoxicity assay (SRB), HCT-116. The format is cell-based. The following applies: Homo sapiens, HCT-116, 72 h, HCT116 cells, SRB, three days; read-out: In Vitro Cellular Activity IC50 HCT116. The method, boiled down:
as §2

A further data set has as its system MCF-7. The data set can be described thus: Cytotoxicity assay (SRB), MCF-7. The data set is classed as cell-based. To be noted: Homo sapiens, MCF7, 72 h, MCF-7 cells, SRB, three days; read-out: In Vitro Cellular Activity IC50 MCF-7. The method, boiled down:
as §2

The subject of the next data set is BT474. As to the kind of experiment: Cytotoxicity assay (SRB), BT474. The format is cell-based. The following applies: Homo sapiens, BT-474, 144 h, BT474 cells, SRB, 6 days; read-out: In Vitro Cellular Activity IC50 BT474. The method, boiled down: as §2
The next data set concerns the target T3, cyclin B/CDK1 enzyme (Homo sapiens, UniProt P06493).
T3 construct: purchased New England BioLabs; host or cells: Sf9 insect cells, recombinant baculovirus
As to the kind of experiment: CDK1 ELISA kinase assay (phospho-Rb ser 795 detection). The data set is classed as biochemical. To be noted: In Vitro Enzyme Assays, read-out: CDK1 IC50. Put shortly: as §1

A further data set deals with T4, Cyclin D1/CDK6 (Homo sapiens, UniProt Q00534).
T4 construct: made in house; host or cells: Sf9 insect cells, recombinant baculovirus
T4 sequence (Q00534 whole entry, species assumed): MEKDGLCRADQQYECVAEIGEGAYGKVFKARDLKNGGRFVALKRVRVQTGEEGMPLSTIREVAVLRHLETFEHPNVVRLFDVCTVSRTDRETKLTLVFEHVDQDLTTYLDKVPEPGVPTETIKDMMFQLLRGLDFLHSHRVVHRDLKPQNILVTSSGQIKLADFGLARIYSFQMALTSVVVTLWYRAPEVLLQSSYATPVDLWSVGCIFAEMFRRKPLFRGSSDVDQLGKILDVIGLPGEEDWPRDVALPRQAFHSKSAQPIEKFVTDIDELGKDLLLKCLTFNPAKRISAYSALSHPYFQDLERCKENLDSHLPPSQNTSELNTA
T4 sequence (P24385 whole entry partner, species assumed): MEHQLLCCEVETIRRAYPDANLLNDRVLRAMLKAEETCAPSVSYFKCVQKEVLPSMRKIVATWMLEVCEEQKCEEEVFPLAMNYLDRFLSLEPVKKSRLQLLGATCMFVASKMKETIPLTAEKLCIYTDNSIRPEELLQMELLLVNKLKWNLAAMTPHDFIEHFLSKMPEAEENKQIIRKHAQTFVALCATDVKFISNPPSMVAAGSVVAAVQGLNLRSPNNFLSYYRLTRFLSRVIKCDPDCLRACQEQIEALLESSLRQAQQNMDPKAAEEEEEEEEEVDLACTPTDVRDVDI
The data set can be described thus: Cyclin D1/CDK6 Elisa. The format is biochemical. To be noted: 200 μM ATP. Here is the method: Cyclin D1/CDK6 was expressed in insect cells (Sf9) infected with recombinant baculovirus and partially purified using ammonium sulfate fractionation. Test compounds were diluted in 20% DMSO/20 mM HEPES, pH 7.5 and serial dilutions were prepared (5 concentrations; 0.005-50 µM). High-binding ELISA microtiter plates (Costar) were coated with the kinase substrate (glutathione-S-transferase (GST) fusion of C-terminal fragment of the retinoblastoma susceptibility gene product (Rb). Non-specific binding sites were blocked with Superblock in Tris-buffered saline (TBS; Pierce). Kinase reactions contained the test inhibitor, 200 μM ATP, 0.5 mg/ml bovine serum albumin (BSA; Sigma), and 0.1 μl cyclin D1/cdk 6. Reaction volumes were adjusted to 30 μl with kinase assay buffer (50 mM HEPES, pH 7.5, 10 mM MgCl2, 5% glycerol, 10 mM 2-mercaptoethanol), and plates were incubated at 30° C. for 1 hour. Reactions were terminated by aspiration, and non-specific sites were blocked with blocking buffer (TBS containing 0.1% Tween-20 and 5% nonfat dry milk). Phoshporylation of the substrate was detected using phospho-Rb specific antibodies (ser-795) (Cell Signalling Technologies) and anti-rabbit IgG/horseradish peroxidase conjugates (Amersham Life Science) using TMB as substrate. Colourimetric reactions were stopped with 2N sulphuric acid and the absorbance was measured at 450 nm (Molecular Devices). IC50 values were determined from inhibition plots.

The next data set deals with T5, IGF1-receptor kinase (Homo sapiens, UniProt P08069).
T5 construct: Purified GST-IGFR; purified Bis-IGFR and Tris-IGFR; fused on or other part: GST with a thrombin cleavage site, removed in the Bis-IGFR and Tris-IGFR forms
T5 sequence (P08069 999-1274 limits assumed): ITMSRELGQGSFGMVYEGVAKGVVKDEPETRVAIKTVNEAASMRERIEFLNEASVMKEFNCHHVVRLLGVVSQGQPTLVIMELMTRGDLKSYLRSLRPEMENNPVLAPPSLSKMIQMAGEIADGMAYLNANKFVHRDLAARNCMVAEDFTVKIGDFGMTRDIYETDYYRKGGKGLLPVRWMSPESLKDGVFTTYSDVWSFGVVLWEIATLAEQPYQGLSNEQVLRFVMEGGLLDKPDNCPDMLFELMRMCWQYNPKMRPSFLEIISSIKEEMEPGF
As to the kind of experiment: IGF1-R kinase assay (96-well FRET Lance). The data set is classed as biochemical. The following applies: for IC50: 100 micromolar ATP, read-out: Igfr ic50. The text has this:
• TITLE: 96-well assay for inhibitors of IGF1-receptor kinase activity • SHORT TITLE: IGF1-R kinase assay • PURPOSE: Identify inhibitors of IGF-1 receptor kinase activity • MATERIALS AND METHODS: Overview: This is a 96-well FRET (Lance) tyrosine kinase assay. • Materials: • Purified GST-IGFR; purified Bis-IGFR and Tris-IGFR; expressed in ExpresSF insect cells. Bis and Tris IGFR are made by phosphorylating the IGFR in the presence of ATP and Mg2+, followed by thrombin cleavage to remove the GST-thrombin cleavage site, and purification by HPLC. The Bis and tris IGFR are phosphorylated on two (bis) or all three tyrosines (tris) in the activation loop. • Biotinylated peptide with a sequence corresponding to the sequence surrounding the autophosphorylation sites in IGF1-R Biotin-NH2-[…]-OH (Anaspec) • Europium-conjugated phosphotyrosine antibody (PT66) (Perkin-Elmer). • Surelight APC (Perkin-elmer) • Plates: 96-well Assay plates (polypropylene plates, natural color) • 96-well-Lance plates (Microfluor 2 black plates; Cat # 7205; Thermolabsystems. • ATP: (Amersham Pharmacia Cat # 27-2056-01), 100 mM stock. • IGFR Lance Protocol (96-well format) • Procedure: • Reagents: • Kinase Buffer (10×): • 0.5 M Hepes, pH 7.5 rt • 0.1 M MgCl2 • Quench Buffer (to be added straight, 1:1, to r×n mix): • 50 mM Hepes, pH 7.5 rt • 50 mM EDTA • Lance Detection Buffer: • 20 mM Tris-HCl, pH 7.5 rt • 0.15 M NaCl-150 • 150 ug/ml BSA (Sigma Cat# A-7284) • Eu-labeled phosphotyrosine antibody PT66 (Perkin-Elmer): 1:4000 dilution of 200 μg/ml stock • Streptavidin-APC (Perkin Elmer): 1/250 (4 microgram/ml final) • ATP (Amersham Pharmacia cat #27-2056-01) 100 mM stock: Dilute to 1 mM (10×) in water. […] Transfer 12.5[…] of the kinase reaction to the antibody detection plate. Allow antibody to react for 1 h at rt in the dark. Then read in Victor with an excitation filter of 340 nm and an emission filter of 665 nm. • Compound additions: • When Example compounds are tested, they are added from a 10% DMSO/50 mM Hepes (pH 7.5) 10× stock. 5 microliters of compound in this buffer are added to the enzyme-peptide-buffer mix. After 10′ incubation at room temperature, ATP is added to start the reaction. A no ATP background control is included in the assay. • […] OF RESULTS: Data are analyzed as follows: % Inhibition={[Sample cpm−Bkg cpm]/[No cmpd cpm−Bkg cpm]}×100%. The biological activity of representative Examples of the invention is reported in Table VII as: 0.2 µM≦x≦10 µM or % inhibition@10 µM.

T2 sequence (P11802 whole entry, species assumed): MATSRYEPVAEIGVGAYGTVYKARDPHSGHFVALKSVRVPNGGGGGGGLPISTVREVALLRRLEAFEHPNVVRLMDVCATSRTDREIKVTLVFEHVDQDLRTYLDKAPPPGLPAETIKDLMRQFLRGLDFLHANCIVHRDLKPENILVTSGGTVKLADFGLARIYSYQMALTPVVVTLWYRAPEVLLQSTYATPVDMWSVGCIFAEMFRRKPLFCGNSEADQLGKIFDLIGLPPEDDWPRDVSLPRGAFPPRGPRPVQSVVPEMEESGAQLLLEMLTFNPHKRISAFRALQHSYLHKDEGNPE
T2 sequence (P24385 whole entry partner, species assumed): as the sequence (P24385 whole entry partner, species assumed) above
T3 sequence (P06493 whole entry): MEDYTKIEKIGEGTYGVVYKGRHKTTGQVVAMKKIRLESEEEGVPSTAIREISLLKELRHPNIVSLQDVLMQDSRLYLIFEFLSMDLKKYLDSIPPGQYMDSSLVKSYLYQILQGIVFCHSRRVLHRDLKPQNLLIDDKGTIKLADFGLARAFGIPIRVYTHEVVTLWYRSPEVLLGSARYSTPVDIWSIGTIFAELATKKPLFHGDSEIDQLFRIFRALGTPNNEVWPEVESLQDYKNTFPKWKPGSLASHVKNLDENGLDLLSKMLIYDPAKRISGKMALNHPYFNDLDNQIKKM
T3 sequence (P14635 whole entry partner): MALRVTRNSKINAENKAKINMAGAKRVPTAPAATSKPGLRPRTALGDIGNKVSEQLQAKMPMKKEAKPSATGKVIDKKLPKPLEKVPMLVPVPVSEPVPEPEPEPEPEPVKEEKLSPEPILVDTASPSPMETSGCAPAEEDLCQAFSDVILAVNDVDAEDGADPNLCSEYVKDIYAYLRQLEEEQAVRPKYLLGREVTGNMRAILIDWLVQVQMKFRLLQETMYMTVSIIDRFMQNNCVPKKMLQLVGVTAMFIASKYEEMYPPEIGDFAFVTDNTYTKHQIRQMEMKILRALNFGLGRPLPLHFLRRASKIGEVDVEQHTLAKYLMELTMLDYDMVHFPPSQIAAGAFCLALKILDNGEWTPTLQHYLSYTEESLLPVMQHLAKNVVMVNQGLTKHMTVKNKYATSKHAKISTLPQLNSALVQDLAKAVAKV

For the compound `O=C1NC(=O)c2ccc(Cl)cc2/C1=C/Nc1ccc(CN2CCCCC2)cc1` [Example 55, (4Z)-6-Chloro-4-({[4-(piperidin-1-ylmethyl)phenyl]amino}methylene)isoquinoline-1,3(2H,4H)-dione], the melting point (usually the temperature, or range, at which the solid turns liquid) lay within 225 to 226 °C. The IC50 (as a rule, the point on the concentration scale where inhibition reaches its midpoint) on cyclin E/CDK2 enzyme is more than 50000 nM. Also, the IC50 in the data set with LoVo is 7700 nM. Further, at cyclin D1/cdk 4 enzyme, the IC50 was 2500 nM. For the same compound, the IC50 with HCT-116 was 5700 nM. The half-maximal inhibitory concentration (IC50) in the data set with MCF-7 amounted to 7000 nM. Further, the IC50 in the data set with BT474 was 11000 nM. The IC50 at cyclin B/CDK1 enzyme was more than 50000 nM. Moreover, on Cyclin D1/CDK6, the midpoint of inhibition, the IC50, lay at 0.12 µM.
As for `COc1ccc(CN/C=C2\C(=O)NC(=O)c3ccc(-n4cccc4)cc32)cc1O` [Example 71], the melting point is 252 to 253 °C. The IC50 with LoVo is 3000 nM. Besides, the IC50 on cyclin D1/cdk 4 enzyme stood at 4 nM. Also, the IC50 with HCT-116 came to 4700 nM. The IC50 with MCF-7 is 7800 nM. For the same compound, in the data set on BT474, the IC50 is 3800 nM. Moreover, the IC50 on cyclin B/CDK1 enzyme came to 9700 nM. On Cyclin D1/CDK6, this compound displayed an IC50 of 0.001 µM.
Turning to `O=C1NC(=O)c2ccc(-n3cccc3)cc2/C1=C/Nc1ccc(CN2CCCCC2)cc1` [Example 74], the melting point fell in the range of 207 to 208 °C. In addition, the half-maximal inhibitory concentration (IC50) in the data set on LoVo was determined as 2400 nM. Moreover, the IC50 in the data set on HCT-116 came to 2700 nM. For the same compound, the IC50 with MCF-7 turned out to be 2100 nM. Moreover, the IC50 with BT474 worked out at 3300 nM. Also, on cyclin B/CDK1 enzyme, the IC50 was more than 50000 nM. The compound also displayed an IC50 against Cyclin D1/CDK6 of 0.02 µM.
As for `COc1ccc(CN/C=C2\C(=O)NC(=O)c3ccc(I)cc32)cc1O` [Example 80, (4Z)-6-Iodo-4-{[(3-hydroxy-4-methoxybenzyl)amino]methylene}isoquinoline-1,3(2H,4H)-dione], the half-maximal inhibitory concentration (IC50) on cyclin E/CDK2 enzyme turned out to be 870 nM; with LoVo, 1500 nM; on cyclin D1/cdk 4 enzyme, 10 nM; in the data set with HCT-116, 2000 nM; with MCF-7, 3700 nM; in the data set with BT474, 1700 nM. Moreover, the values for the IC50 on cyclin B/CDK1 enzyme and on Cyclin D1/CDK6 were 6000 nM and 0.002 µM, respectively.
For the compound `CN1CCN(c2ccc(N/C=C3\C(=O)NC(=O)c4ccc(I)cc43)cc2)CC1` [Example 81, (4Z)-6-Iodo-4-({[4-(4-methylpiperazin-1-yl)phenyl]amino}methylene)isoquinoline-1,3(2H,4H)-dione], the half-inhibitory concentration (IC50) is more than 50000 nM on cyclin E/CDK2 enzyme; 5100 nM with LoVo; 480 nM on cyclin D1/cdk 4 enzyme; 2800 nM in the data set on BT474; more than 50000 nM on cyclin B/CDK1 enzyme; 0.1 µM against Cyclin D1/CDK6.
Consider `COc1cccc(Nc2ccc3c(c2)/C(=C/Nc2ccc(CN(C)C)cc2)C(=O)NC3=O)c1` [Example 907, (4Z)-4-[({4-[(dimethylamino)methyl]phenyl}amino)methylene]-6-[(3-methoxyphenyl)amino]isoquinoline-1,3(2H,4H)-dione], for which the IC50 on IGF1-receptor kinase was 1390 nM.
For the compound `COc1ccc(Nc2ccc3c(c2)/C(=C/Nc2ccc(CN(C)C)cc2)C(=O)NC3=O)cc1` [Example 908, (4Z)-4-[({4-[(dimethylamino)methyl]phenyl}amino)methylene]-6-[(4-methoxyphenyl)amino]isoquinoline-1,3(2H,4H)-dione], at IGF1-receptor kinase, the IC50 stood at 566 nM.
Take `CC(=O)c1cccc(Nc2ccc3c(c2)/C(=C/Nc2ccc(CN(C)C)cc2)C(=O)NC3=O)c1` [Example 909, (4Z)-6-[(3-acetylphenyl)amino]-4-[({4-[(dimethylamino)methyl]phenyl}amino)methylene]isoquinoline-1,3(2H,4H)-dione]: the IC50 at IGF1-receptor kinase turned out to be 887 nM.
Regarding `CC(=O)c1cccc(Nc2ccc3c(c2)/C(=C/Nc2ccc(N4CC(C)NC(C)C4)cc2)C(=O)NC3=O)c1` (centres unmarked) [Example 910, (4Z)-6-[(3-acetylphenyl)amino]-4-({[4-(3,5-dimethylpiperazin-1-yl)phenyl]amino}methylene)isoquinoline-1,3(2H,4H)-dione], the IC50 on IGF1-receptor kinase worked out at 540 nM.
Consider `CCN(CC)Cc1ccc(N/C=C2\C(=O)NC(=O)c3ccc(Nc4ccc(C)cc4)cc32)cc1` [Example 911, (4Z)-4-[({4-[(diethylamino)methyl]phenyl}amino)methylene]-6-[(4-methylphenyl)amino]isoquinoline-1,3(2H,4H)-dione], for which the IC50 on IGF1-receptor kinase turned out to be 1160 nM.
For `O=C1NC(=O)c2ccc(Nc3ccc4[nH]ccc4c3)cc2/C1=C/Nc1ccc(CN2CCCCC2)cc1` [Example 912], the “Igfr % Inhibition at 10 uM” value on IGF1-receptor kinase (10 uM compound) worked out at 9%.
As to `O=C1NC(=O)c2ccc(Nc3cccc4ncccc34)cc2/C1=C/Nc1ccc(CN2CCCCC2)cc1` [Example 913, (4Z)-4-({[4-(piperidin-1-ylmethyl)phenyl]amino}methylene)-6-(quinolin-5-ylamino)isoquinoline-1,3(2H,4H)-dione], on IGF1-receptor kinase, the IC50 was found to be 6160 nM.
As for `COc1cc(CN/C=C2\C(=O)NC(=O)c3ccc(Br)cc32)cc(O)c1OC` [compound 78], the IC50 at cyclin E/CDK2 enzyme is more than 50000 nM; with LoVo it was more than 50000 nM; on cyclin D1/cdk 4 enzyme, 7 nM; in the data set with HCT-116 it was more than 50000 nM; in the data set on MCF-7, 32500 nM; with BT474 it was 42000 nM. In addition, the IC50 is more than 50000 nM at cyclin B/CDK1 enzyme and 0.002 µM against Cyclin D1/CDK6.

(Values after US7713994B2 (Wyeth LLC, priority 2005, dated 2010).)
